Data taken from patent US20230031406A1, “COMPOUNDS AND COMPOSITIONS FOR TREATING CONDITIONS ASSOCIATED WITH NLRP ACTIVITY” (Novartis AG, priority 2018, published 2023).
Like-named read-outs stand apart in the source and are kept apart here. One block for each compound: values may come before it.

System: PMA-differentiated THP-1 cells
Experiment: IL-1β production in PMA-differentiated THP-1 cells stimulated with gramicidin (hTHP-1 assay containing 2% fetal bovine serum; Procedures 1 and 2)
Type: cell-based, human
Conditions: 2% fetal bovine serum
Summary of the method: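 PMA 20 ng/ml 16-18 h → trypsinise → 50,000 cells/well, RPMI/2% FBS; cpd 1 h (11-pt, 100–0.0017 μM; DMSO 0.37%); gramicidin 5 μM, 2 h; spin; supernatant IL-1β via HTRF.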

[1] = Homo sapiens, THP-1, Table B1, class symbols, read-out: Average IC50 of compounds in hTHP-1 assay: hTHP-1 IC50
[2] = Homo sapiens, THP-1, Table B3, hTHP-1 assay, class symbols, read-out: IC50
[3] = Table B2, class symbols, read-out: hTHP-1 IC50
[4] = Table B1, class symbols, read-out: Average IC50 of compounds in hTHP-1 assay: hTHP-1 IC50
[5] = Homo sapiens, THP-1, Table B3, hTHP-1 assay, numeric values, read-out: IC50
[6] = Table B3, hTHP-1 assay, class symbols, read-out: IC50
[7] = Homo sapiens, THP-1, Table B2, class symbols, read-out: hTHP-1 IC50

IC50 [1]: 0.04 to 0.2 µM
SMILES: C[C@@H]1CCc2c1nc1c(c2NC(=O)N=[S@@](N)(=O)c2cnc(C(C)(C)O)s2)CCC1 [Compound 162bb, (R,R)-2-(2-hydroxypropan-2-yl)-N′-((3-methyl-1,2,3,5,6,7-hexahydrodicyclo-penta[b,e]pyridin-8-yl)carbamoyl)thiazole-5-sulfonimidamide]

IC50 [4]: 5 to 30 µM
SMILES: CC1CCc2c1nc1c(c2NC(=O)N=S(N)(=O)c2ccn(C(F)F)n2)CCC1 (single isomer, unassigned) [Compound 184c, (R,S) or (R,R)-1-(difluoro-methyl)-N′-((3-methyl-1,2,3,5,6,7-hexahydro-dicyclopenta[b,e]pyridin-8-yl)carbamoyl)-1H-pyrazole-3-sulfonimidamide]

IC50 [4]: 5 to 30 µM
SMILES: CC(C)(O)c1ncc(S(N)(=O)=NC(=O)Nc2c3c(nc4c2CCC4(C)C)CCC3)s1 (single isomer, unassigned) [Compound 153a, (S) or (R)-N′-((3,3-dimethyl-1,2,3,5,6,7-hexahydro-dicyclopenta[b,e]pyridin-8-yl)carbamoyl)-2-(2-hydroxypropan-2-yl)thiazole-5-sulfonimidamide]

IC50 [7]: 0.2 to 1 µM
SMILES: Cc1c(C(F)(F)F)nc2c(c1NC(=O)N=[S@](N)(=O)c1cnc(C(C)(C)O)s1)CC[C@@H]2C [Compound 608a]

IC50 [7]: 5 to 30 µM
SMILES: CC(C)(O)c1ccc(S(N)(=O)=NC(=O)Nc2c3c(nc4c2CCC4)CCC3)cc1 (single isomer, unassigned) [Compound 633b, (R) or (S)-N′-((1,2,3,5,6,7-hexahydrodicyclopenta [b,e]pyridin-8-yl)carbamoyl)-4-(2-hydroxypropan-2-yl)benzene-sulfonimidamide]

IC50 [3]: 5 to 30 µM
SMILES: Cc1c(C(F)(F)F)nc2c(c1NC(=O)N=S(N)(=O)c1ccn(C(F)F)n1)CCC2 (single isomer, unassigned) [Compound 621a, (S) or (R)-1-(Difluoromethyl)-N′-((3-methyl-2-(trifluoromethyl)-6,7-dihydro-5H-cyclopenta[b]pyridin-4-yl)carbamoyl)-1H-pyrazole-3-sulfonimidamide]

IC50 [3]: 5 to 30 µM
SMILES: CC(C)(O)c1cnc(S(N)(=O)=NC(=O)Nc2c3c(nc4c2CCC4(C)C)CCC3)s1 (single isomer, unassigned) [Compound 686b, (R) or (S)-N′-((3,3-dimethyl-1,2,3,5,6,7-hexahydrodicyclopenta [b,e]pyridin-8-yl)carbamoyl)-5-(2-hydroxypropan-2-yl)thiazole-2-sulfonimidamide]

IC50 [4]: 5 to 30 µM
SMILES: CC1CCc2c1nc1c(c2NC(=O)N=S(N)(=O)c2cnc(C(C)(C)O)s2)CCC1 (single isomer, unassigned) [Compound 162aa, (S,S) or (S,R)-2-(2-hydroxypropan-2-yl)-N′-((3-methyl-1,2,3,5,6,7-hexahydrodicyclo-penta[b,e]pyridin-8-yl)carbamoyl)thiazole-5-sulfonimidamide]

Second part, the compound before the results:

SMILES: CCCc1cc(NC(=O)N=S(N)(=O)c2cnc(C(C)(C)O)s2)c2c(n1)CCC2 (stereo not shown) [Compound 112, 2-(2-hydroxypropan-2-yl)-N′-((2-propyl-6,7-dihydro-5H-cyclopenta[b]pyridin-4-yl)carbamoyl)thiazole-5-sulfonimidamide]
IC50 (Homo sapiens, THP-1, Table B1, numeric bounds, read-out: Average IC50 of compounds in hTHP-1 assay: hTHP-1 IC50): > 30 µM

SMILES: CCc1ncc(S(N)(=O)=NC(=O)Nc2c3c(nc4c2CC[C@H]4C)CCC3)s1 (stereo partly drawn) [Example 629, 2-Ethyl-N′-(((R)-3-methyl-1,2,3,5,6,7-hexahydrodicyclopenta[b,e]pyridin-8-yl)carbamoyl)thiazole-5-sulfonimidamide]
IC50 [2]: 0.2 to 1 µM

SMILES: CC1(C)CCc2c1nc1c(c2NC(=O)N=S(N)(=O)c2cnc(C(O)CO)s2)CCC1 (stereo not shown) [Example 753, 2-(1,2-Dihydroxyethyl)-N′-((3,3-dimethyl-1,2,3,5,6,7-hexahydrodicyclopenta[b,e]pyridin-8-yl)carbamoyl) thiazole-5-sulfonimidamide]
IC50 (Homo sapiens, THP-1, Table B4, class symbols, read-out: hTHP-1 IC50): 0.2 to 1 µM

SMILES: CCC1CCc2c1nc1c(c2NC(=O)N=S(N)(=O)c2cnc(C(C)(C)O)s2)CCC1 (stereo not shown) [Compound 662, N′-((3-ethyl-1,2,3,5,6,7-hexahydrodicyclopenta[b,e]pyridin-8-yl)carbamoyl)-2-(2-hydroxypropan-2-yl)thiazole-5-sulfonimidamide]
IC50 [3]: 5 to 30 µM

SMILES: CC1CCc2c1nc1c(c2NC(=O)N=S(N)(=O)c2ncc(C(C)(C)O)s2)CCC1 (single isomer, unassigned) [Compound 140ab, (R,S) or (R,R)-5-(2-hydroxypropan-2-yl)-N′-((3-methyl-1,2,3,5,6,7-hexa-hydrodicyclo-penta[b,e]pyridin-8-yl)carbamoyl)thiazole-2-sulfonimidamide]
IC50 [4]: 1 to 5 µM

SMILES: CC1CCc2c1nc1c(c2NC(=O)N=S(N)(=O)c2ncc(C(C)(C)O)s2)CCC1 (single isomer, unassigned) [Compound 140aa, (R,R) or (R,S)-5-(2-hydroxypropan-2-yl)-N′-((3-methyl-1,2,3,5,6,7-hexa-hydrodicyclo-penta[b,e]pyridin-8-yl)carbamoyl)thiazole-2-sulfonimidamide]
IC50 [1]: 0.04 to 0.2 µM

SMILES: Cc1c(C(F)(F)F)nc2c(c1NC(=O)N=S(N)(=O)c1ccn(C)n1)CCC2 (single isomer, unassigned) [Example 694, (S) or (R)-1-Methyl-N′-((3-methyl-2-(trifluoromethyl)-6,7-dihydro-5H-cyclopenta[b]pyridin-4-yl)carbamoyl)-1H-pyrazole-3-sulfonimidamide]
IC50 [5]: > 30 µM

SMILES: CCn1cc(F)c(S(N)(=O)=NC(=O)Nc2c3c(nc(C(F)(F)F)c2-c2cccc(F)c2)CCC3)n1 (stereo not shown) [Example 747, 1-Ethyl-4-fluoro-N′-((3-(3-fluorophenyl)-2-(trifluoromethyl)-6,7-dihydro-5H-cyclopenta[b]pyridin-4-yl)cathamoyl)-1H-pyrazole-3-sulfonimidamide]
IC50 (Table B4, class symbols, read-out: hTHP-1 IC50): 0.008 to 0.04 µM

SMILES: CCc1c(CC(F)(F)F)nc2c(c1NC(=O)N=S(N)(=O)c1sc(C(C)(C)O)cc1F)CCC2 (single isomer, unassigned) [Example 639, (R) or (S)-N′-((3-ethyl-2-(2,2,2-trifluoroethyl)-6,7-dihydro-5H-cyclopenta[b]pyridin-4-yl)carbamoyl)-3-fluoro-5-(2-hydroxypropan-2-yl) thiophene-2-sulfonimidamide]
IC50 [6]: 0.2 to 1 µM

SMILES: NS(=O)(=NC(=O)Nc1c2c(nc3c1CCC31CC1)CCC2)c1nn(C(F)F)cc1F (stereo not shown) [Example 569, 1-(Difluoromethyl)-4-fluoro-N′-((1′,5′,6′,7′-tetrahydro-2′H-spiro[cyclopropane-1,3′-dicyclopenta[b,e]pyridin]-8′-yl)carbamoyl)-1H-pyrazole-3-sulfonimidamide]
IC50 [2]: 0.2 to 1 µM

SMILES: C[C@@H]1CCc2c1nc1c(c2NC(=O)N=S(N)(=O)c2nn(C(F)F)cc2F)CCC1 (single isomer, unassigned) [Example 679, (R) or (S)-1-(difluoromethyl)-4-fluoro-N′-(((R)-3-methyl-1,2,3,5,6,7-hexahydrodicyclopenta[b,e]pyridin-8-yl)carbamoyl)-1H-pyrazole-3-sulfonimidamide]
IC50 [6]: 0.04 to 0.2 µM

SMILES: CC(C)n1nc(S(N)(=O)=NC(=O)Nc2c3c(nc4c2CC[C@H]4C)CCC3)cc1CO (single isomer, unassigned) [Example 643, (R) or (S)-5-(hydroxymethyl)-1-isopropyl-N′-(((R)-3-methyl-1,2,3,5,6,7-hexahydrodicyclopenta[b,e]pyridin-8-yl)carbamoyl)-1H-pyrazole-3-sulfonimidamide]
IC50 [2]: 1 to 5 µM

SMILES: CC1(C)CCc2c1nc1c(c2NC(=O)N=S(N)(=O)c2ccn(-c3ccccc3)n2)CCC1 (stereo not shown) [Compound 659, N′-((3,3-dimethyl-1,2,3,5,6,7-hexahydrodicyclopenta[b,e]pyridin-8-yl)carbamoyl)-1-phenyl-1H-pyrazole-3-sulfonimidamide]
IC50 [7]: 1 to 5 µM

SMILES: Cc1nc(C)c(C)c(NC(=O)N=S(N)(=O)c2cnc(C(C)(C)O)s2)c1C (single isomer, unassigned) [Compound 133b, (S) or (R)-2-(2-hydroxypropan-2-yl)-N′-((2,3,5,6-tetramethylpyridin-4-yl)carbamoyl)thiazole-5-sulfonimidamide]
IC50 (Table B1, numeric bounds, read-out: Average IC50 of compounds in hTHP-1 assay: hTHP-1 IC50): > 30 µM

SMILES: CO[C@H]1COc2c(S(N)(=O)=NC(=O)Nc3c(C)c(C(F)(F)F)nc4c3CCC4)cnn2C1 (single isomer, unassigned) [Example 655, (S) or (R)-(6R)-6-methoxy-N′-((3-methyl-2-(trifluoromethyl)-6,7-dihydro-5H-cyclopenta[b]pyridin-4-yl)carbamoyl)-6,7-dihydro-5H-pyrazolo[5,1-b][1,3] oxazine-3-sulfonimidamide]
IC50 [5]: > 30 µM

SMILES: CC(C)c1c(-c2ccccc2)nc2c(c1NC(=O)N=S(N)(=O)c1cnc(C(C)(C)O)s1)CCC2 (single isomer, unassigned) [Compound 145b, (S) or (R)-2-(2-hydroxy-propan-2-yl)-N′-((3-isopropyl-2-phenyl-6,7-dihydro-5H-cyclopenta[b]pyridin-4-yl)carbamoyl)thiazole-5-sulfonimidamide]
IC50 [4]: 1 to 5 µM

SMILES: CC1CCc2c1nc1c(c2NC(=O)N=S(N)(=O)c2cc(C(C)(C)O)cs2)CCC1 (single isomer, unassigned) [Compound 141a, (S,R/S) or (R,R/S)-4-(2-hydroxypropan-2-yl)-N′-((3-methyl-1,2,3,5,6,7-hexahydro-dicyclopenta[b,e]pyridin-8-yl)carbamoyl)thiophene-2-sulfonimidamide]
IC50 [4]: 1 to 5 µM
